Test systems include CAKI-1 renal; DLD-1 colon; DMS 114 small cell lung; DMS 273 small cell lung; HOP-18 NSCLC; K-562 leukemia; M19-MEL melanoma; SNB-78 CNS; UACC-257 melanoma; XF 498 CNS; KM20L2 colon; LXFL 529 NSCLC; RXF-631 renal.
Common to all, as to experiment: NCI-60 cell line screen, 48 h

SMILES strings stand for the structures.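 Briefly, cells in 96-well plates were exposed to five compound concentrations for 48 h, and endpoints were estimated by linear interpolation. Definition used: TGI = concentration required for complete inhibition of growth.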

On to `COc1ccc(/C=C2\C(=O)N(C(=O)c3ccc(NC(C)=O)cc3)N=C2C)cc1OC`, for which the TGI with CAKI-1 renal, in the assay with DLD-1 colon, in the assay with DMS 114 small cell lung, in the assay on DMS 273 small cell lung, in the assay with HOP-18 NSCLC and with K-562 leukemia was greater than 100 µM throughout. The TGI in the assay on M19-MEL melanoma, in the assay on SNB-78 CNS, in the assay on UACC-257 melanoma and with XF 498 CNS was greater than 100 µM each time.

For the molecule `O=C1CC(Nc2ccccc2)c2c(Cl)sc(Cl)c21` (stereo not given), the TGI was 1.36 µM in the assay with CAKI-1 renal, greater than 100 µM in the assay on K-562 leukemia and 3.86 µM in the assay with UACC-257 melanoma.

As for `O=C(CSc1nc2ccccc2c(=O)n1-c1ccccc1)N=Nc1c(O)[nH]c2ccc(Br)cc12`, the TGI in the assay on CAKI-1 renal came to 3.69 µM; with K-562 leukemia it was 10.3 µM; in the assay on UACC-257 melanoma, 52 µM.

Take `CC(=O)N1N=C(c2ccccc2)NC(=O)C1c1cc(C)c(O)c(C)c1` (stereo not given): the TGI with CAKI-1 renal was greater than 100 µM; in the assay on K-562 leukemia, greater than 100 µM; in the assay with UACC-257 melanoma, 96.7 µM.

Regarding `C[C@]12CCC(=O)C=C1CC[C@@H]1[C@@H]2CC[C@]2(C)C(=O)/C(=C/c3ccc([N+](=O)[O-])cc3)C[C@@H]12`, the TGI with CAKI-1 renal, with K-562 leukemia and with UACC-257 melanoma was greater than 100 µM throughout.

For the molecule `CCOc1cc2c(cc1OC)c[n+](C)c1c3cc(OC)c(OC)cc3ccc21`, the TGI was greater than 100 µM in the assay on CAKI-1 renal; greater than 100 µM in the assay with DLD-1 colon; 51.3 µM in the assay on DMS 114 small cell lung; greater than 100 µM in the assay with DMS 273 small cell lung; greater than 80.1 µM with HOP-18 NSCLC; greater than 49 µM with K-562 leukemia. Besides, the TGI is greater than 100 µM in the assay on KM20L2 colon; greater than 100 µM in the assay on LXFL 529 NSCLC; greater than 100 µM in the assay on M19-MEL melanoma; 44.9 µM in the assay with RXF-631 renal; greater than 89.9 µM in the assay on SNB-78 CNS; greater than 100 µM in the assay with UACC-257 melanoma.

`CCOC(=O)c1nc(SC)sc1NC(=O)c1ccc(OC)cc1`: the TGI in the assay with CAKI-1 renal, with K-562 leukemia and in the assay with UACC-257 melanoma was greater than 100 µM in each case.

In the case of `CCCCOC(=O)Nc1ccc(S(=O)(=O)Nc2c(Cl)cccc2Cl)cc1`, the TGI was 82.7 µM in the assay with CAKI-1 renal, 47.8 µM in the assay with K-562 leukemia and greater than 100 µM in the assay with UACC-257 melanoma.

As for `Cc1cc2c(cc1Cl)SSc1cc(Cl)c(C)cc1S(=O)(=O)Nc1nc(N)nn1C(O)n1nc(N)nc1NS2(=O)=O`, the TGI in the assay with CAKI-1 renal, in the assay with K-562 leukemia and with UACC-257 melanoma was greater than 10 µM throughout.

For `COC(=O)C12C(=O)CC3CCC1C32C(=O)OC` (stereo not given), the TGI with CAKI-1 renal, with K-562 leukemia and with UACC-257 melanoma was greater than 100 µM in each case.

Consider `O=C(CN1CCCCC1)c1ccc2[nH]c(=O)oc2c1`, for which the TGI with CAKI-1 renal, in the assay on K-562 leukemia and in the assay on UACC-257 melanoma was greater than 100 µM in each case.

Take `COc1cc(OC)c(-n2[nH]c(=O)n(C)c2=O)c(OC)c1`: the TGI in the assay with CAKI-1 renal, in the assay with K-562 leukemia and in the assay with UACC-257 melanoma was greater than 100 µM each time.

Consider `COc1cc(/C=C2\CC3C4CC=C5C[C@@H](O)CC[C@]5(C)C4CC[C@]3(C)\C2=N\O)cc(OC)c1OC` (stereo not given in full), for which the values for the TGI in the assay on CAKI-1 renal, in the assay on K-562 leukemia and in the assay with UACC-257 melanoma were 37.7 µM, greater than 100 µM and 61.1 µM, respectively.

`C[N+](C)(N)Cc1nc(-c2ccc(Cl)cc2)no1`: the TGI in the assay on CAKI-1 renal, in the assay on K-562 leukemia and with UACC-257 melanoma was greater than 100 µM throughout.

As to `O=c1[nH]nc(-c2ccc3ccccc3c2)[nH]1`, the TGI in the assay on CAKI-1 renal, with K-562 leukemia and with UACC-257 melanoma was greater than 100 µM each time.

With `Cc1ccc2[nH]c3c(c2c1)C1CCC(C(C)(C)C)CC1C1C(=O)N(c2ccc(Oc4ccccc4)cc2)C(=O)C31` (stereo not given), the TGI was 45.4 µM with CAKI-1 renal, 31.3 µM with K-562 leukemia and greater than 100 µM in the assay on UACC-257 melanoma.

With `CCOC(=O)Cn1nnc2ccc(Nc3nc4ccccc4nc3C(=O)OCC)cc21`, the TGI in the assay with CAKI-1 renal, in the assay on K-562 leukemia and with UACC-257 melanoma was greater than 100 µM in each case.

As for `CC(=O)Oc1ccc2c(c1)O/C(=C\c1ccc(N(C)C)cc1)C2=O`, the TGI in the assay on CAKI-1 renal, in the assay on K-562 leukemia and in the assay on UACC-257 melanoma was greater than 100 µM throughout.

Consider `O=C1O/C(=C(\Br)c2ccc([N+](=O)[O-])cc2)c2ccccc21`, for which the TGI with CAKI-1 renal, with K-562 leukemia and in the assay on UACC-257 melanoma was greater than 100 µM throughout.

For the molecule `OC1C2CN3CCN(C2)CC1(c1ccccc1)C3` (stereo not given), the TGI with CAKI-1 renal, in the assay on K-562 leukemia and in the assay with UACC-257 melanoma was greater than 100 µM throughout.

Consider `CC(C)C(Sc1nc(-c2ccccc2)c(-c2ccccc2)[nH]1)C(=O)N/N=C/c1ccc(Cl)cc1` (stereo not given), for which the TGI in the assay with CAKI-1 renal is 69.9 µM; with DLD-1 colon, greater than 100 µM; in the assay on DMS 114 small cell lung, 71.5 µM; with DMS 273 small cell lung it was 39.6 µM; in the assay on KM20L2 colon, 46.2 µM; in the assay on LXFL 529 NSCLC it was 82.8 µM. Besides, the figures for the TGI in the assay with M19-MEL melanoma, in the assay on SNB-78 CNS and with UACC-257 melanoma were 34.6 µM, greater than 100 µM and 53.7 µM, respectively.

For `c1ccc(CCCN2C3CCC2CN(CCOC(c2ccccc2)c2ccccc2)C3)cc1`, the results for the TGI in the assay on CAKI-1 renal, in the assay on K-562 leukemia and in the assay on UACC-257 melanoma were 25.7 µM, 64 µM and 20.8 µM, respectively.

As to `CCOC(=O)c1ccc(-c2onc(C)c2Br)[nH]1`, the TGI with CAKI-1 renal, with K-562 leukemia and with UACC-257 melanoma was greater than 100 µM each time.

On to `CC1=NN(c2ccccc2)C(=O)/C1=C1\SC(c2ccccc2)(c2ccccc2)c2ccccc21`, for which the TGI with CAKI-1 renal, with K-562 leukemia and in the assay on UACC-257 melanoma was greater than 100 µM in each case.

With `Cc1cccc(C)c1NC(=S)N/C=C(\C#N)C(N)=O`, the TGI with CAKI-1 renal, with K-562 leukemia and in the assay on UACC-257 melanoma was greater than 100 µM in each case.

With `CN1CCN(c2n[nH]c(=O)c3c2nnn3Cc2ccccc2)CC1`, the TGI with CAKI-1 renal, in the assay with K-562 leukemia and in the assay on UACC-257 melanoma was greater than 100 µM throughout.

Source of the values: PubChem BioAssay (NCI).
